# Source: patent publication US10669274B2, “Azaphenalene-3-one derivative, preparation method therefor, and application therof” (SUZHOU KANGRUN PHARMACEUTICALS INC., priority 2017, dated 2020)
# Molecular target: T1, PARP1 (Homo sapiens, UniProt P09874)
# T1 construct: purchased Trevigen
# Assay: Determination of PARP1 inhibitory activity (Universal PARP colorimetric assay kit, Trevigen)
# Type: biochemical
# Details: for IC50: PARP1, OD at 450 nm, Logit method; for Inhibition (%): footnote: inhibition rate below 500 nM unless indicating otherwise
# Method: Determination of PARP1 inhibitory activity
# Method for determining PARP1 inhibitory activity:
# (1) adding 50 μL of 1X PARP Buffer to each well, incubating for 30 min at room temperature, and drying;
# (3) adding 25 μL of 1X PARP1 cocktail to each well and incubating for 60 min at room temperature;
# T1 sequence (P09874 whole entry): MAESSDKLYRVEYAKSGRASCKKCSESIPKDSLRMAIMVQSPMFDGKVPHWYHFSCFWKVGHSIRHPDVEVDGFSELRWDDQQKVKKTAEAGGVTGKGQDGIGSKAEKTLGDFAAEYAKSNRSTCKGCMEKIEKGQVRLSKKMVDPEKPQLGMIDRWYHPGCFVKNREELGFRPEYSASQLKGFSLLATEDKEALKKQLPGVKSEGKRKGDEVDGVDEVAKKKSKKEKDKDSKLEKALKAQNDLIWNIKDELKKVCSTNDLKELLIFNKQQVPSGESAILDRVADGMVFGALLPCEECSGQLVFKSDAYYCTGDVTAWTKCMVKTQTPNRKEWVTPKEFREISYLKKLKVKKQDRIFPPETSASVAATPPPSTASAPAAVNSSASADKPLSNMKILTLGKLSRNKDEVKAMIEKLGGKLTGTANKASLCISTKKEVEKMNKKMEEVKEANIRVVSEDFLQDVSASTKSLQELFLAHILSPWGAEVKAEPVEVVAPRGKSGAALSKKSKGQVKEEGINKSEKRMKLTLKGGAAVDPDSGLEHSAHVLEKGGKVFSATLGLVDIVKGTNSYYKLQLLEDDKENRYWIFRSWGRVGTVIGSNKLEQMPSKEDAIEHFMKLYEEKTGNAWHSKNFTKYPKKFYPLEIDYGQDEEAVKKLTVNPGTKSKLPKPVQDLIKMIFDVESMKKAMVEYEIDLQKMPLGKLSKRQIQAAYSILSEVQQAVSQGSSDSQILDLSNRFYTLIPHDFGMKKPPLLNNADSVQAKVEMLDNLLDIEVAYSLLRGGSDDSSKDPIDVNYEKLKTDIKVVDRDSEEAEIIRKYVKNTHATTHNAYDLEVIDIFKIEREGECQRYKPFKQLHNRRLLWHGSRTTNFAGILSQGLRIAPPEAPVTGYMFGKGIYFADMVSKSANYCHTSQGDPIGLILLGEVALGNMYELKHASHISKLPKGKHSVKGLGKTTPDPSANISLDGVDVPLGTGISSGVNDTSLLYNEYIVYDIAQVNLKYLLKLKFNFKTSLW
Structure (SMILES),IC50,Inhibition (%) (PARP1 enzyme inhibition rate),"inhibition at 10 µM (PARP1 enzyme inhibition rate, 10 μM)","inhibition at 1 µM (PARP1 enzyme inhibition rate, 1 μM)"
CCN(CC)CC1=CN2C(=Nc3cccc4c(=O)[nH]nc2c34)C=C1 [Compound A3],137 nM,84.77%,,
CN(C)C1CCN(CC2=CN3C(=Nc4cccc5c(=O)[nH]nc3c45)C=C2)CC1 [Compound A9],,82.15%,,
CN(CC1=CN2C(=Nc3cccc4c(=O)[nH]nc2c34)C=C1)C1CCN(c2ccccc2)CC1 [Compound A11],160 nM,92.42%,,
O=c1[nH]nc2c3c(cccc13)N=C1C=CC(CN3CCc4ccc(F)cc4C3)=CN12 [Compound A13],,79.67%,,
"NC(=O)c1cccc(N)c1 [Compound 3-AB, reference compound]",,,16.9%,
"NC(=O)c1ccc(I)c([N+](=O)[O-])c1 [BSI-201, reference compound]",,,,23.6%
CN(CC1=CN2C(=Nc3cccc4c(=O)[nH]nc2c34)C=C1)C1CCN(Cc2ccccc2)CC1 [Compound A12],,89.42%,,
O=c1[nH]nc2c3c(cccc13)N=C1C=CC(CN3CCCC3)=CN12 [Compound A4],103 nM,84.77%,,
CNC1CCN(CC2=CN3C(=Nc4cccc5c(=O)[nH]nc3c45)C=C2)CC1 [Compound A8],,79.97%,,
O=c1[nH]nc2c3c(cccc13)N=C1C=CC(CN3CCCCC3)=CN12 [Compound A6],294 nM,91.67%,,
O=c1[nH]nc2c3c(cccc13)N=C1C=CC(CNCC(F)(F)F)=CN12 [Compound A2],346 nM,76.29%,,
O=c1[nH]nc2c3c(cccc13)N=C1C=CC(Cn3ccnc3)=CN12 [Compound A5],164 nM,95.72%,,
CC1=CN2C(=Nc3cccc4c(=O)[nH]nc2c34)C=C1 [Compound 9],81.9 nM,87.58%,,
CN1CCC(N(C)CC2=CN3C(=Nc4cccc5c(=O)[nH]nc3c45)C=C2)CC1 [Compound A10],119 nM,88.97%,,
O=c1[nH]nc2c3c(cccc13)N=C1C=CC(CN3CCOCC3)=CN12 [Compound A7],194 nM,73.37%,,
